We go through 15 compounds from US8906904B2, “Alkoxy pyrazoles as soluble guanylate cyclase activators” (Boehringer Ingelheim International GmbH, priority 2012, dated 2014).

Each structure is given as a SMILES string. Values after ≈ are worked out from the molar mass of the structure shown.

The nature of this series: Assessment of solubility (McIlvaine buffers, 24 h shake, UPLC-UV). It counts as physicochemical. The following applies: kinetic from dmso stock. A digest of the protocol: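 Compounds from 10 mM DMSO stocks were shaken for 24 h at room temperature in McIlvaine buffers at pH 2.2, 4.5 and 6.8 (2.5% v/v DMSO final), then filtered. Filtrates were quantified by UPLC-UV at 254 nm against a 50:50 acetonitrile/water reference assumed fully dissolved, as a single determination.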

For orientation: solubility means the concentration that dissolves in the medium under given conditions. Higher therefore signals much dissolved substance. Take `COc1c(C(=O)O)cnn1-c1cccc(-c2cccc(C)c2OCc2ccc3c(c2)CCN(C2CCOCC2OC)C3)n1` (stereo not drawn) [Compound 81]: the solubility at 24 h (pH 2.2, aqueous buffer) was determined as 100 µg/mL (≈ 171 µM); the solubility at 24 h (pH 4.5, aqueous buffer) is 84 µg/mL (≈ 144 µM); the concentration in solution (pH 6.8, aqueous buffer) (solubility at 24 h) was 79 µg/mL (≈ 135 µM).

For `COc1c(C(=O)O)cnn1-c1cccc(-c2cccc(C)c2OCc2ccc3c(c2)CN(CC2CC(F)(F)C2)C3)n1` [Compound 82], the solubility at 24 h came out at 120 µg/mL (≈ 214 µM) (pH 2.2, aqueous buffer); 100 µg/mL (≈ 178 µM) (pH 4.5, aqueous buffer); 97 µg/mL (≈ 173 µM) (pH 6.8, aqueous buffer).

As for `COc1c(C(=O)O)cnn1-c1cccc(-c2cccc(C(F)(F)F)c2OCc2ccc3c(c2)CCN(C2CCOCC2)C3)n1` [Compound 83], the solubility at 24 h is, setting by setting: (pH 2.2, aqueous buffer) 110 µg/mL (≈ 181 µM); (pH 4.5, aqueous buffer) 88 µg/mL (≈ 145 µM); (pH 6.8, aqueous buffer) 95 µg/mL (≈ 156 µM).

For the compound `COc1c(C(=O)O)cnn1-c1cccc(-c2cccc(C(F)(F)F)c2OCc2ccc3c(c2C)CCN(C2CCOCC2)C3)n1` [Compound 84], the solubility at 24 h was 110 µg/mL (≈ 177 µM) (pH 2.2, aqueous buffer); 86 µg/mL (≈ 138 µM) (pH 4.5, aqueous buffer); 89 µg/mL (≈ 143 µM) (pH 6.8, aqueous buffer).

On to `COc1c(C(=O)O)cnn1-c1cccc(-c2cccc(C)c2OCc2ccc3c(c2)CN(C2COC2)C3)n1` [Compound 85], for which the solubility at 24 h reads like this: (pH 2.2, aqueous buffer) 120 µg/mL (≈ 234 µM); (pH 4.5, aqueous buffer) 96 µg/mL (≈ 187 µM); (pH 6.8, aqueous buffer) 110 µg/mL (≈ 215 µM).

In the case of `COc1c(C(=O)O)cnn1-c1cccc(-c2cccc(C)c2OCc2ccc3c(c2)CCN(C2CCOCC2C)C3)n1` (stereo not drawn) [Compound 86], the solubility at 24 h stood at 110 µg/mL (≈ 193 µM) (pH 2.2, aqueous buffer); 90 µg/mL (≈ 158 µM) (pH 4.5, aqueous buffer); 91 µg/mL (≈ 160 µM) (pH 6.8, aqueous buffer).

Consider `COc1c(C(=O)O)cnn1-c1cccc(-c2cccc(C)c2OCc2ccc3c(c2)CCN(C2CC4CCC(C2)O4)C3)n1` (stereo not drawn) [Compound 87], for which the solubility at 24 h came to 110 µg/mL (≈ 189 µM) (pH 2.2, aqueous buffer); 87 µg/mL (≈ 150 µM) (pH 4.5, aqueous buffer); 90 µg/mL (≈ 155 µM) (pH 6.8, aqueous buffer).

With `COc1c(C(=O)O)cnn1-c1cccc(-c2cccc(C(F)(F)F)c2OCc2ccc3c(c2C)CCN(C2COC2)C3)n1` [Compound 88], the solubility at 24 h was found to be 90 µg/mL (≈ 151 µM) (pH 2.2, aqueous buffer); 63 µg/mL (≈ 106 µM) (pH 4.5, aqueous buffer); 75 µg/mL (≈ 126 µM) (pH 6.8, aqueous buffer).

As for `COc1c(C(=O)O)cnn1-c1cccc(-c2cccc(C)c2OCc2ccc3c(c2)C(C)(C)CN(C2CCOCC2)C3)n1` [Compound 89], the solubility at 24 h is, setting by setting: (pH 2.2, aqueous buffer) 130 µg/mL (≈ 223 µM); (pH 4.5, aqueous buffer) 92 µg/mL (≈ 158 µM); (pH 6.8, aqueous buffer) 81 µg/mL (≈ 139 µM).

As to `COc1c(C(=O)O)cnn1-c1cccc(-c2cccc(C)c2OCc2ccc3c(c2)CCN([C@H]2CC[C@H](OC)CC2)C3)n1` [Compound 90], the solubility at 24 h is, setting by setting: (pH 2.2, aqueous buffer) 100 µg/mL (≈ 172 µM); (pH 4.5, aqueous buffer) 81 µg/mL (≈ 139 µM); (pH 6.8, aqueous buffer) 81 µg/mL (≈ 139 µM).

Consider `COc1c(C(=O)O)cnn1-c1cccc(-c2cccc(C)c2OCc2ccc3c(c2)CCN([C@H]2CC[C@@H](OC)CC2)C3)n1` [Compound 91], for which the solubility at 24 h is 100 µg/mL (≈ 172 µM) (pH 2.2, aqueous buffer); 81 µg/mL (≈ 139 µM) (pH 4.5, aqueous buffer); 81 µg/mL (≈ 139 µM) (pH 6.8, aqueous buffer).

Regarding `COc1c(C(=O)O)cnn1-c1cccc(-c2cccc(C)c2OCc2ccc3c(c2)CCN(CC2COCCO2)C3)n1` (stereo not drawn) [Compound 92], the solubility at 24 h was 110 µg/mL (≈ 193 µM) (pH 2.2, aqueous buffer); 93 µg/mL (≈ 163 µM) (pH 4.5, aqueous buffer); 96 µg/mL (≈ 168 µM) (pH 6.8, aqueous buffer).

Consider `COc1c(C(=O)O)cnn1-c1cccc(-c2cccc(C(F)(F)F)c2OCc2ccc3c(c2)CN(C2CCOCC2)C3)n1` [Compound 93], for which the solubility at 24 h runs as follows: (pH 2.2, aqueous buffer) 98 µg/mL (≈ 165 µM); (pH 4.5, aqueous buffer) 77 µg/mL (≈ 130 µM); (pH 6.8, aqueous buffer) 81 µg/mL (≈ 136 µM).

Consider `CCOc1c(C(=O)O)cnn1-c1cccc(-c2cccc(C)c2OCc2ccc3c(c2)CCN(C2CCOCC2F)C3)n1` (stereo not drawn) [Compound 94], for which the solubility at 24 h worked out at 91 µg/mL (≈ 155 µM) (pH 2.2, aqueous buffer); 68 µg/mL (≈ 116 µM) (pH 4.5, aqueous buffer); 73 µg/mL (≈ 124 µM) (pH 6.8, aqueous buffer).

Consider `CCOc1c(C(=O)O)cnn1-c1cccc(-c2cccc(C)c2OCc2ccc3c(c2)CCN(CC2CC(F)(F)C2)C3)n1` [Compound 96], for which the solubility at 24 h came out at 93 µg/mL (≈ 158 µM) (pH 2.2, aqueous buffer); 67 µg/mL (≈ 114 µM) (pH 4.5, aqueous buffer); 75 µg/mL (≈ 127 µM) (pH 6.8, aqueous buffer).
